From patent publication US20090029966A1, “COMBINATION THERAPY WITH PARP INHIBITORS” (ABBOTT LABORATORIES, priority 2006, published 2009)

Assays:
[1] = tested on: HCT-116 tumors; experiment: HCT-116 tumors in nude mice, combination with radiotherapy; type: in vivo; settings: 6.25, 12.5 or 25 mg/kg/day i.p. OMP 14 days + radiation 2 Gy/day x 10 doses; compared to radiotherapy or compound alone
Procedure: This study was done in nude mice bearing HCT-116 tumors in the leg. Three days (−3) prior to the beginning of radiotherapy, mice were implanted i.p with OMPs delivering A-620223 at 0, 6.25, 12.5, or 25 mg/kg/day for 14 days. Starting day 0 mice received radiation treatment (2 Gy/day) for 10 doses alone or in combination with the 3 different doses of 2-(N-propylpiperidin-4-yl)benzimidazole-4-carboxamide.

[2] = tested on: B16F10 murine melanoma; experiment: B16F10 murine melanoma, combination with TMZ; type: in vivo, C57BL/6 mice; settings: A-861695 25, 12.5 or 3.1 mg/kg/day p.o. b.i.d. days 1-14 + TMZ 62.5 mg/kg/day p.o. q.d. x5
Procedure: This study was done on mice with B 16F 10 murine melanoma. Mice were divided into six treatment groups with 8-10 mice per group. See figure two for treatment groups. B16F10 cells were injected s.c. into C57BL/6 mice on day 0. Dosing was initiated on day one. A-861695 was administered p.o., b.i.d. on days 1-14. On days 3-7 temozolomide (TMZ) was administered p.o., q.d. (for the groups receiving both TMZ and A-861695, TMZ was given two hours after the A-861695 was administered).

[3] = tested on: 9 L orthotopic gliosarcoma; experiment: 9L orthotopic gliosarcoma, combination with TMZ; type: in vivo, Fisher 344 rats
Procedure: Tumor growth was monitored longitudinally using contrast-enhanced magnetic resonance imaging (MRI). Animal survival was evaluated based on humane euthanasia of rats presenting signs of irreversible illness.

[4] = tested on: MX-1 breast carcinoma xenograft; experiment: MX-1 breast carcinoma xenograft, combination with carboplatin; type: in vivo, scid mice
Description: The MX-1 breast carcinoma xenograft model in scid mice was used to test the ability of A-861695 to potentiate the efficacy of platinum-based agents. This cell line was derived from a person with a poorly differentiated mammary carcinoma. MX-1 is sensitive to cytotoxic agents. Carboplatin, a second-generation platinum containing anticancer drug, is currently the standard of care for treating lung, ovarian, and head and neck cancers. MX-1 tumors are sensitive to carboplatin. […] Mice were randomized into treatment groups of 8-10 mice per group. […] A-861695 was administered at 25 mg/kg/day s.c., via 14-day osmotic minipumps (OMPs) starting on day 17. Carboplatin was given i.p., on day 20, 24 and 27.

[5] = tested on: MX-1 breast carcinoma xenograft; experiment: MX-1 breast carcinoma xenograft, combination with cisplatin; type: in vivo, nude mice
Procedure: In this study the efficacy of A-861695 in combination with cisplatin was evaluated in the MX-1 breast carcinoma xenograft model in nude mice. Tumors were size-matched to 100 mm^3 on day 16 and PARP inhibitor therapy (p.o., b.i.d. ×8) was initiated the same day. A single dose of cisplatin at 6.0 mg/kg/day was administered i.p. day 18. Data, shown in FIG. 5, are mean±S.E.M. of 9 mice per treatment group.

[6] = tested on: intra-cerebellar medulloblastoma xenographs; HSB T-cell ALL; JM1 pre-B ALL; P115 primary AML cells; experiment: TMZ and ABT-888 combinations in medulloblastoma xenografts and leukemia cells (FIGS. 7-11); type: in vivo, mice; settings: differing amounts of TMZ and ABT-888 combinations
[7] = tested on: DoHH-2 cells; experiment: B-cell lymphoma (DoHH-2 cell) flank xenograft; settings: for Mean Tumor Volume Day 27 mm^3 ± SE: ABT-888 25 mg/kg/day PO BID 7 days, Temozolomide 50 mg/kg/day PO QD 5 days, tumor size at start 503 mm^3; for % T/C Day 28 (dosing 11 days): treatment group/corresponding vehicle group x 100
Procedure: Animals were size matched on day 15 to an approximate tumor volume of 503 mm^3.
Group mouse weights were recorded three times a week to monitor for weight loss due to toxicity or excessive tumor burden.

[8] = tested on: PC3M-Luc human prostate carcinoma; experiment: Orthotopic PC3M-Luc human prostate carcinoma model (BLI); type: in vivo, male SCID-C.B17 mice; settings: TMZ 50 mg/kg/day alone or with ABT-888 25 mg/kg/day
Procedure: Bioluminescent PC-3M-luciferase-C6 osteolytic human prostate cancer cells, constitutively expressing luciferase (Caliper Life Sciences, Hopkinton, Mass.) were orthotopically injected into the prostates of ˜10-week-old male SCID-C.B17 mice (C.B-17/IcrCrl-scid-BR, Charles River Labs). Mice were housed in a facility with constant humidity, temperature and a 12-h light-dark cycle. Mice were anesthetized with intramuscular injections of ketamine (40 mg/kg) and rompum (5 mg/kg) before surgery. The surgical region was shaved and sterilized with iodine and alcohol swabs. A lower midline incision was made to access the prostate. The left lobe of the dorsal prostate was injected with 1×10^6 PC3M-Luc cells (975 photon/second/cell) in 30 μl (1:1 matrigel, Collaborative Biomedical Products, Bedford, Mass.). The peritoneal cavity was closed with 4-0 suture and skin incision was closed with clip.
In vivo bioluminescent image (BLI) was performed with an IVISR Imaging System (Caliper Life Sciences, Hopkinton, Mass.). […] Images and measurements of bioluminescent signals were acquired and analyzed using Living Image® software (Caliper Life Sciences, Hopkinton, Mass.). Uniform region of interests (ROIs) were used across all groups and time points to achieve quantification of bioluminescent signal. […] The mice were then monitored with this system at weekly intervals. […]

[9] = tested on: MDA-231-LN-luc cells
[10] = tested on: tumor; experiment: Valproic acid and radiotherapy (FIG. 6); type: in vivo; settings: single and combined administration of valproic acid and radiotherapy
[11] = TMZ 50 PO q.d x 5, ABT-888/TMZ 25/50 mg/kg/day po b.i.d./po q.d., normalized BLI post size match

In the case of `CCCN1CCC(c2nc3cccc(C(N)=O)c3[nH]2)CC1` [2-(N-propylpiperidin-4-yl)benzimidazole-4-carboxamide], the “reduction of tumor size in combination with radiotherapy (FIG. 1)” value [1] is reported as “significant improvement in the reduction of tumor size”.

With `C[C@]1(c2nc3c(C(N)=O)cccc3[nH]2)CCCN1` [ABT-888, 2-[(2R)-2-methylpyrrolidin-2-yl]-1H-benzimidazole-4-carboxamide] the “potentiation of TMZ efficacy (FIG. 2)” value [2] was “significantly potentates the TMZ efficacy in a dose dependent manner”, the “tumor volume reduction better than TMZ alone” value ([3]; A-861695 50 mg/kg/day + TMZ 17.5 mg/kg/day, day 14, p<0.005) was 44% and the “reduction of tumor volume (day 14)” value ([3]; A-861695 50 mg/kg/day p.o. b.i.d. in combination with TMZ 17.5 mg/kg/day p.o. q.d., MRI) was 63%. For the same compound, the animal survival ([3]; A-861695 18 or 50 mg/kg/day with TMZ, p<0.005 Log-rank test) was “significantly prolonged animal survival”, the “potentiation of carboplatin (tumor volumes, FIG. 4)” value ([4]; A-861695 25 mg/kg/day s.c. OMP 14 days + carboplatin 10 and 15 mg/kg/day) was “pronounced potentiation of carboplatin” and the “cures (no measurable tumors at end of the trial)” value ([5]; A-861695 5 mg/kg/day p.o. b.i.d. x8 + cisplatin 6.0 mg/kg/day i.p. day 18) was 8/9. For the same compound, the “cures (no measurable tumors at end of the trial)” value ([5]; A-861695 25 mg/kg/day p.o. b.i.d. x8 + cisplatin 6.0 mg/kg/day i.p. day 18) was 8/9, the “cures (no measurable tumors at end of the trial)” value ([5]; A-861695 50 mg/kg/day p.o. b.i.d. x8 + cisplatin 6.0 mg/kg/day i.p. day 18) was 6/9 and the “dose at which maximal potentiation of cisplatin was reached” value ([5]; dose-response 5, 25, 50 mg/kg/day) was 5 mg/kg/day. For the same compound, the “effect on toxicity of TMZ (FIGS. 7-11)” value [6] was “enhancement of toxicity of TMZ”, the “bioavailability in brain tissue” value (compared to other PARP inhibitors) was “improved bioavailability in brain tissue” and the blood brain barrier (rat, in vivo) was “crosses the blood brain barrier”. The “Mean Tumor Volume Day 27 mm^3 ± SE” value [7] was 2970 ± 410 mm^3, the Observations ([7]; toxicity assessment in Scid female mice) was “None” and the “% T/C Day 28 (dosing 11 days)” value [7] was 127 (—) %.

With `Cn1nnc2c(C(N)=O)ncn2c1=O` [TMZ, temozolomide] the “efficacy after second treatment schedule (day 55)” value [8] was “no efficacy”, the “Day 12 % Tumor change (BLI)” value [9, 11] was 66 ± 76% and the “Day 30 % Tumor change (BLI)” value [9, 11] was 1217 ± 560%. The “Weight loss (Observations)” value ([9]; after last dose of 2nd cycle) was >10% after last, the Mortality ([9]; three cycles of 5 days with 11 days of rest, n=11) was 0/11 and the “Mean Tumor Volume Day 27 mm^3 ± SE” value [7] was 2202 ± 253 mm^3. For the same compound, the “% T/C Day 28 (dosing 11 days)” value [7] was 94% and the “% TGI Day 28 (dosing 11 days)” value ([7]; tumor growth inhibition vs vehicle) was 6%.

With `N.N.O=C([O-])C1(C(=O)[O-])CCC1.[Pt+2]` [carboplatin, reference compound] the “tumor inhibition as a single agent (FIG. 4)” value ([4]; carboplatin 5, 10, 15 mg/kg/day i.p. day 20, 24, 27) was “dose-dependent tumor inhibition”.

With `N.N.[Cl][Pt][Cl]` [cisplatin, reference compound] the “cures (no measurable tumors at end of the trial)” value ([5]; cisplatin monotherapy 6.0 mg/kg/day i.p. day 18) was 3/9.

In the case of `CCCC(CCC)C(=O)O` [valproic acid], the “effect on radiotherapy (FIG. 6)” value [10] is reported as “can enhance the effects of radiotherapy”.
